Like-named read-outs stand apart in the source and are kept apart here.
What was measured:
[1] = test system: OVCAR-3 xenografts; conditions: for Weight loss / TD14 (tumour volume doubling time from a relative volume of 1 to 4) / Weight day 14: DOX 8 or DOX-GA3 500 mg kg-1 i.v. days 0,7; for GI % (maximum growth inhibition): DOX 8 or DOX-GA3 500 mg kg-1 i.v. weekly x 2
[2] = Stability of DOX-GA3 in stored control tissue homogenates and serum samples; format: in vitro ADME; conditions: up to 1 mM, up to 4 weeks at -20C (data not shown)
[3] = In vivo stability of the prodrug in non-tumour bearing mice; conditions: DOX-GA3 250 mg kg-1, t = 30 min
[4] = test system: OVCAR-3 cells; assay: In vitro antiproliferative effects in OVCAR-3 cells (sulforhodamine B, 72 h); format: cell-based, human; conditions: for IC50: 72 h
[5] = Maximum tolerated dose in OVCAR-3-bearing nude mice
[6] = biological target: T1, human β-glucuronidase (Homo sapiens, UniProt P08236); conditions: pH 6.8, 37C, enzyme 1 g ml-1, 30 min, direct linear plots
T1 sequence (P08236 23-651): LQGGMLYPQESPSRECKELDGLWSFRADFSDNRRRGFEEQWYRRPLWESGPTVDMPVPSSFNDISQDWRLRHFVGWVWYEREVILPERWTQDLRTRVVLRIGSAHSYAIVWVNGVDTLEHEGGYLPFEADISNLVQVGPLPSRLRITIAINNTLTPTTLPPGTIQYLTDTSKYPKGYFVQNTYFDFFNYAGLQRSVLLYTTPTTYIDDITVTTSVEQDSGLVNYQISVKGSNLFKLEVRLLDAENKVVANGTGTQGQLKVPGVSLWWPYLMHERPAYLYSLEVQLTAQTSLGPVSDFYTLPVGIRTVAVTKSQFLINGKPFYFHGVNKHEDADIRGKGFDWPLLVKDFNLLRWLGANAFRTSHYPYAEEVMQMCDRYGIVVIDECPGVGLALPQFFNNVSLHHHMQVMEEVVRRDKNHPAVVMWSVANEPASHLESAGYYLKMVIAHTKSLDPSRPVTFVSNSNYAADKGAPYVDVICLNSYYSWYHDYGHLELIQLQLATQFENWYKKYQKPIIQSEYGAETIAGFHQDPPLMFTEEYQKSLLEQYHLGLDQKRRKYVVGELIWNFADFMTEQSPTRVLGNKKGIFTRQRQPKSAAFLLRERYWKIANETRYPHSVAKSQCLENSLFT

[7] = test system: β-glucuronidase; assay: Inhibition of β-glucuronidase activity by saccharolactone in samples; format: biochemical; conditions: 1 mM (data not shown)
[8] = test system: β-glucuronidase; conditions: ref Tomino and Paigen, 1975; cited from earlier work
[9] = DOX-GA3 250 mg kg-1 vs DOX 8 mg kg-1
[10] = after DOX 8 mg kg-1 or DOX-GA3 250 mg kg-1 i.v.

COc1cccc2c1C(=O)c1c(O)c3c(c(O)c1C2=O)C[C@@](O)(C(=O)CO)C[C@@H]3O[C@H]1C[C@H](NC(=O)OCc2ccc(NC(=O)O[C@@H]3O[C@H](C(=O)O)[C@@H](O)[C@H](O)[C@H]3O)cc2)[C@H](O)[C@H](C)O1 [DOX-GA3, N -[4-doxorubicin-N -carbonyl (oxymethyl)phenyl] O -β-glucuronyl carbamate]
specific growth delay (SGD) ([1]; larger tumours (mean 400 mm3), 500 mg kg-1 i.v. weekly x 2): 3.9
Weight loss ([1]; larger tumours (mean 400 mm3)): 9.6%
GI % (maximum growth inhibition) ([1]; larger tumours (mean 400 mm3)): 88%
TD14 (tumour volume doubling time from a relative volume of 1 to 4) ([1]; larger tumours): 75.1 days
Weight day 14 ([1]; larger tumours): 91.9%
Weight loss ([1]; small tumours (mean 125 mm3)): 5.1%
GI % (maximum growth inhibition) ([1]; small tumours (mean 125 mm3)): 87%
TD14 (tumour volume doubling time from a relative volume of 1 to 4) ([1]; small tumours): 32.4 days
Weight day 14 ([1]; small tumours): 99.0%
activation to doxorubicin on storage [2]: less than 0.1%
tumour AUC of DOX, fold higher after DOX-GA3 than after DOX (DOX at MTD, prodrug at half of MTD): 10 fold
times lower peak plasma concentration of DOX than after DOX (DOX-GA3 250 mg kg-1 i.v. vs DOX 8 mg kg-1 i.v.): 7.6 times
prodrug peak concentration in plasma (DOX-GA3 250 mg kg-1 i.v., t = 1 min): 1370 nmol/mL
peak of DOX-GA3 in OVCAR-3 tumour tissue (DOX-GA3 250 mg kg-1 i.v., t = 30 min): 44.0 nmol/g
fold higher DOX peak concentration in tumour than after DOX [9]: ~5 fold
fold lower peak DOX concentration in normal tissues (heart) than after DOX [9]: up to 5 fold
DOX peak concentration in OVCAR-3 tumour tissue (after DOX 8 mg kg-1 (t = 1 min) or DOX-GA3 250 mg kg-1 (t = 2 h) i.v.): 9.57 nmol/g
DOX peak concentration in heart [10]: 3.27 nmol/g
DOX peak concentration in kidney [10]: 70.8 nmol/g
DOX peak concentration in liver [10]: 14.2 nmol/g
DOX peak concentration in plasma [10]: 2.17 nmol/mL
drug targeting index (DTI), heart tissue (tumour vs heart): 31.4
drug targeting index (DTI), plasma (tumour vs plasma (surrogate for bone marrow)): 81.4
ratio of drug/prodrug in plasma (tumour-bearing animals, DOX-GA3 250 mg kg-1): 0.002
drug/prodrug ratio in plasma [3]: 0.001
times less capable of inhibiting cell growth than DOX [4]: more than 100 times
IC50 [4]: 22 µM
maximum weight loss at MTD ([5]; 500 mg kg-1 i.v. weekly x 2): approximately 10%
toxic deaths at MTD ([5]; 500 mg kg-1 i.v. weekly x 2): No toxic deaths occurred
molar amount that could be administered at an equitoxic dose, compared with parent drug ([5]; DOX-GA3 500 mg kg-1 x 2 vs DOX 8 mg kg-1 x 2): 38 fold
MTD ([5]; i.v. weekly x 2, OVCAR-3-bearing mice): 500 mg/kg
Km [6]: 1100 µM
Vmax [6]: 25.0 μmol min^–1mg^–1

COc1cccc2c1C(=O)c1c(O)c3c(c(O)c1C2=O)C[C@@](O)(C(=O)CO)C[C@@H]3O[C@H]1C[C@H](N)[C@H](O)[C@H](C)O1 [DOX, Doxorubicin]
GI % (maximum growth inhibition) ([1]; larger tumours (mean 400 mm3)): 52%
TD14 (tumour volume doubling time from a relative volume of 1 to 4) ([1]; larger tumours): 21.5 days
GI % (maximum growth inhibition) ([1]; small tumours (mean 125 mm3)): 56%
TD14 (tumour volume doubling time from a relative volume of 1 to 4) ([1]; small tumours): 11.5 days
heart AUC of DOX, fold higher after DOX than after prodrug (nude, mouse, in vivo): 3.1 fold
kidney AUC of DOX, times lower after DOX than after prodrug (nude, mouse, in vivo): 2.0 times
liver AUC of DOX, fold higher after DOX than after prodrug (nude, mouse, in vivo): 1.8 fold
IC50 ([4]; Homo sapiens): 0.12 µM

O.O=C(O)[C@@H](O)[C@H]1OC(=O)[C@H](O)[C@H]1O [Saccharolactone, D-glucaric acid-1,4-lactone monohydrate]
activity of the enzyme abolished [7]: > 99%

O=C(O)[C@H]1O[C@@H](Oc2ccc([N+](=O)[O-])cc2)[C@H](O)[C@@H](O)[C@@H]1O [4-nitrophenyl-glucuronide]
Km [8]: 1300 µM

Source: PMC2363760, “A novel doxorubicin-glucuronide prodrug DOX-GA3 for tumour-selective chemotherapy: distribution and efficacy in experimental human ovarian cancer” (British Journal of Cancer, 2001)
